Measured values: patent US20250235450A1, “COMBINATION THERAPIES COMPRISING APREMILAST AND TYK2 INHIBITORS” (Celgene Corporation, priority 2019, published 2025)
Where two headings read alike, the source gives them in different places.

Experiments:
[1] = test system: moderate to severe plaque psoriasis; conditions: subjects with moderate to severe plaque psoriasis; cited from earlier work
[2] = test system: anti-CD3/anti-CD28 (Th0) or anti-CD3/anti-CD28, IL-1β, IL-6 and IL-23 (Th17) stimulated whole blood; assay: Ex-vivo TruCulture tube assay: cytokine production in stimulated whole blood; format: cell-based, human
Method: Whole blood was received through the Celgene Donor program after informed consent and donor deidentification. All volunteers were healthy and were not on any medications for at least 72 hours prior to the blood draw. Blood was collected in sodium heparin tubes. The assay was started within 2 hours of the blood draw.
An ex-vivo stimulation of healthy donor human whole blood was performed under two different stimulation conditions. Condition Th0 was a stimulation with TruCulture® tubes containing anti-CD3/anti-CD28. Condition Th17 was a stimulation with TruCulture® tubes containing anti-CD3/anti-CD28 plus IL-1β, IL-6 and IL-23. Whole blood was separated into 15 milliliter conical tubes and pre-treated with DMSO, apremilast alone, BMS-986165 alone or BMS-986165 combined with apremilast. Final concentrations were 0.2% DMSO, 1 μM for apremilast alone, 1 μM, 0.1 μM, 0.01 μM and 0.001 μM BMS-986165 alone and in combination with 1 μM apremilast. Blood was mixed well and then incubated in a 37° C./5% CO2 incubator for 1 hour.
The anti-CD3/anti-CD28 (200 ng/ml and 330 ng/ml final concentrations respectively) TruCulture® tubes were thawed on the bench top for 30 minutes and then labeled. Plungers were pressed and then broken off. TruCulture® tubes were placed in a rack standing upright such that the plunger side is pointing down in the rack and the tube-cap is pointing up. While blood was incubating with compound Human recombinant IL-6, IL-1β and IL-23 were added to all Th17 tubes in the following concentrations: 120 ng IL-6, 120 ng IL-1b and 150 ng IL-23. One ml of the pre-treated whole blood was placed in each tube, using sterile pyrogen-free pipette tips. The cap was replaced and the contents of the tube were mixed by inverting 3 times. The tubes were immediately placed in a 37° C. heat block and incubated for 42 hours (tube-cap end). After the 42 hours the tubes were removed from the heat block, tops were unscrewed and 250 μl of the supernatant was removed and transferred into three 96-well polypropylene plates. Samples were immediately frozen at −80° C. The supernatants were then thawed at room temperature and tested neat for cytokine production by Luminex Multi-Plex MagPix technology (Millipore) or IL-22 by ELISA (Abcam). The manufacturer's procedures were followed accordingly.
Data processing for the cytokine analysis was done using Milliplex Analyst (Millipore), and raw data was exported to Excel template for the cytokine analysis. Data from the template was plotted using GraphPad Prism 7.0 (GraphPad Software, Inc., La Jolla, CA) and expressed as pg/ml or % of control. Statistical analysis was also performed using One Way Anova and Dunnett's Post Test.
To evaluate the combinatory effect of apremilast and BMS-986165, data from the two independent treatments were analyzed by comparing the combinatory response against the theoretical additive response of the two agents. The expected additive effect of two agents (A and B) was calculated using the fractional product method: (fu)A,B=(fu)A×(fu)B; where fu=fraction unaffected by treatment.

[3] = Th0, 0.01 μM BMS-986165 (combination: + 1 μM apremilast)
[4] = Th0, 0.1 μM BMS-986165 (combination: + 1 μM apremilast)
[5] = Th17, 0.01 μM BMS-986165 (combination: + 1 μM apremilast)
[6] = Th17, 0.1 μM BMS-986165 (combination: + 1 μM apremilast)

[2H]C([2H])([2H])NC(=O)c1nnc(NC(=O)C2CC2)cc1Nc1cccc(-c2ncn(C)n2)c1OC [BMS-986165, 6-(cyclopropanecarboxamido)-4-((2-methoxy-3-(1-methyl-1H-1,2,4-triazol-3-yl)phenyl)amino)-N-(methyl-d3)pyridazine-3-carboxamide]
phase 2 clinical trial outcome [1]: positive results | increase of GM-CSF, statistical significance ([2]; 0.1 μM BMS-986165 (Th0 and Th17) and 1 μM (Th17)): significant | inhibition at 0.01 µM ([2]; Homo sapiens, Th0, 0.01 μM BMS-986165, read-out: inhibition of IL-22): 16% | inhibition at 0.1 µM ([2]; Homo sapiens, Th0, 0.1 μM BMS-986165, read-out: inhibition of IL-22): 86% | inhibition at 1 µM ([2]; Homo sapiens, Th0, 1 μM BMS-986165, read-out: inhibition of IL-22): 91% | inhibition at 0.001 µM ([2]; Homo sapiens, Th17, 0.001 μM BMS-986165 (combination: + 1 μM apremilast), read-out: inhibition of IL-17F): 31% | inhibition at 0.01 µM ([2]; Homo sapiens, Th17, 0.01 μM BMS-986165 (combination: + 1 μM apremilast), read-out: inhibition of IL-17F): 34% | inhibition at 0.1 µM ([2]; Homo sapiens, Th17, 0.1 μM BMS-986165 (combination: + 1 μM apremilast), read-out: inhibition of IL-17F): 70% | inhibition at 1 µM ([2]; Homo sapiens, Th17, 1 μM BMS-986165 (combination: + 1 μM apremilast), read-out: inhibition of IL-17F): 95% | inhibition at 1 µM ([2]; Homo sapiens, Th17, 1 μM BMS-986165, read-out: inhibition of TNF-α): 68% | increase in TNF-α expression ([2]; Th0, 0.001 μM BMS-986165): 21% | increase of GM-CSF ([2]; Th0, 0.001 μM BMS-986165): 19% | increase in TNF-α expression ([2]; Th0, 0.01 μM BMS-986165): 43% | increase of GM-CSF ([2]; Th0, 0.01 μM BMS-986165): 36% | CCL20 % of Control [2, 3]: 82.7 % of Control | GM-CSF % of Control [2, 3]: 136.3 % of Control | IFN-γ % of Control [2, 3]: 100.2 % of Control | IL-1β % of Control [2, 3]: 113.5 % of Control | IL-2 % of Control [2, 3]: 120.1 % of Control | IL-4 % of Control [2, 3]: 122.8 % of Control | IL-5 % of Control [2, 3]: 153.1 % of Control | IL-6 % of Control [2, 3]: 149.3 % of Control | IL-10 % of Control [2, 3]: 101.5 % of Control | IL-13 % of Control [2, 3]: 146.9 % of Control | IL-17A % of Control [2, 3]: 83.5 % of Control | IL-17F % of Control [2, 3]: 68.5 % of Control | IL-21 % of Control [2, 3]: 107.6 % of Control | IL-22 % of Control [2, 3]: 84.1 % of Control | IL-23 % of Control [2, 3]: 101.8 % of Control | TNF-α % of Control [2, 3]: 143.1 % of Control | increase in TNF-α expression ([2]; Th0, 0.1 μM BMS-986165): 61% | increase of GM-CSF ([2]; Th0, 0.1 μM BMS-986165): 110% | CCL20 % of Control [2, 4]: 106.4 % of Control | GM-CSF % of Control [2, 4]: 210.5 % of Control | IFN-γ % of Control [2, 4]: 80.9 % of Control | IL-1β % of Control [2, 4]: 113.2 % of Control | IL-2 % of Control [2, 4]: 187.4 % of Control | IL-4 % of Control [2, 4]: 114.7 % of Control | IL-5 % of Control [2, 4]: 178.6 % of Control | IL-6 % of Control [2, 4]: 124.0 % of Control | IL-10 % of Control [2, 4]: 33.8 % of Control | IL-13 % of Control [2, 4]: 205.9 % of Control | IL-17A % of Control [2, 4]: 73.0 % of Control | IL-17F % of Control [2, 4]: 28.3 % of Control | IL-21 % of Control [2, 4]: 94.5 % of Control | IL-22 % of Control [2, 4]: 13.4 % of Control | IL-23 % of Control [2, 4]: 89.9 % of Control | TNF-α % of Control [2, 4]: 160.7 % of Control | increase of GM-CSF ([2]; Th0, 1 μM BMS-986165): 31% | inhibition of TNF-α cytokine expression ([2]; Th0, 1 μM BMS-986165): 66% | IL-17A levels ([2]; Th0, 1 μM BMS-986165 (combination: + 1 μM apremilast), control 138 pg/mL): 97 pg/mL | effect on IL-17A cytokine expression ([2]; Th0 and Th17): inhibited | effect on IL-17F cytokine expression ([2]; Th0 and Th17): inhibited | effect on IL-22 cytokine expression ([2]; Th0 and Th17): inhibited | effect on IL-22 cytokine expression, statistical significance ([2]; Th0 and Th17, 0.1 μM and 1 μM BMS-986165): significantly lowered | inhibition of TNF-α levels, statistical significance ([2]; Th0 and Th17, 1 μM BMS-986165): significant | effect on IL-17F, statistical significance ([2]; Th0 and Th17, 0.1 and 1 μM BMS-986165): significantly reduced | effect on IL-22 cytokine expression ([2]; Th17, 0.001 μM BMS-986165): no effect | increase in TNF-α production ([2]; Th17, 0.01 μM BMS-986165): 19% | increase of GM-CSF ([2]; Th17, 0.01 μM BMS-986165): 41% | CCL20 % of Control [2, 5]: 121.7 % of Control | GM-CSF % of Control [2, 5]: 141.1 % of Control | IFN-γ % of Control [2, 5]: 114.2 % of Control | IL-1β % of Control [2, 5]: 94.2 % of Control | IL-2 % of Control [2, 5]: 128.5 % of Control | IL-4 % of Control [2, 5]: 126.5 % of Control | IL-5 % of Control [2, 5]: 144.3 % of Control | IL-6 % of Control [2, 5]: 96.8 % of Control | IL-10 % of Control [2, 5]: 78.4 % of Control | IL-13 % of Control [2, 5]: 158.1 % of Control | IL-17A % of Control [2, 5]: 97.7 % of Control | IL-17F % of Control [2, 5]: 73.6 % of Control | IL-21 % of Control [2, 5]: 91.5 % of Control | IL-22 % of Control [2, 5]: 83.3 % of Control | IL-23 % of Control [2, 5]: 93.8 % of Control | TNF-α % of Control [2, 5]: 118.5 % of Control | inhibition of IL-22 cytokine expression [2, 5]: 17% | IL-17A levels ([2]; Th17, 0.01 μM BMS-986165 (combination: + 1 μM apremilast), control 532 pg/mL): 519 pg/mL | increase in TNF-α levels, statistical significance ([2]; Th17, 0.1 μM BMS-986165): significant | increase in TNF-α production ([2]; Th17, 0.1 μM BMS-986165): 77% | increase of GM-CSF ([2]; Th17, 0.1 μM BMS-986165): 139% | CCL20 % of Control [2, 6]: 157.8 % of Control | GM-CSF % of Control [2, 6]: 239.3 % of Control | IFN-γ % of Control [2, 6]: 74.7 % of Control | IL-1β % of Control [2, 6]: 89.0 % of Control | IL-2 % of Control [2, 6]: 250.3 % of Control | IL-4 % of Control [2, 6]: 161.9 % of Control | IL-5 % of Control [2, 6]: 249.9 % of Control | IL-6 % of Control [2, 6]: 112.7 % of Control | IL-10 % of Control [2, 6]: 46.6 % of Control | IL-13 % of Control [2, 6]: 287.5 % of Control | IL-17A % of Control [2, 6]: 79.2 % of Control | IL-17F % of Control [2, 6]: 30.0 % of Control | IL-21 % of Control [2, 6]: 86.3 % of Control | IL-22 % of Control [2, 6]: 39.8 % of Control | IL-23 % of Control [2, 6]: 96.3 % of Control | TNF-α % of Control [2, 6]: 177.4 % of Control | inhibition of IL-22 cytokine expression [2, 6]: 60% | IL-17A levels ([2]; Th17, 0.1 μM BMS-986165 (combination: + 1 μM apremilast), control 532 pg/mL): 428 pg/mL | increase of GM-CSF ([2]; Th17, 1 μM BMS-986165): 104% | inhibition of IL-22 cytokine expression ([2]; Th17, 1 μM BMS-986165): 70% | IL-17A levels ([2]; Th17, 1 μM BMS-986165 (combination: + 1 μM apremilast), control 532 pg/mL): 383 pg/mL | inhibition of IL-17A expression ([2]; similar under Th0 and Th17, 0.001-1 μM BMS-986165): 10-25% | effect on GM-CSF production ([2]; whole blood, Th0 and Th17): increased | effect on TNF-α production ([2]; whole blood, Th0 and Th17): increased
